From patent US9144239B2, “Macrocyclic picolinamides as fungicides” (DOW AGROSCIENCES LLC, priority 2012, dated 2015)
Read-outs that look alike come from different tables or passages of the source.

Tests used:
Type in all cases: in vivo
Cercospora beticola = assay: Fungicidal activity: leaf spot of sugar beets (CERCBE); conditions: 24 h, 1 Day Protectant, sugar beet, read-out: Disease Control CERCBE 1DP
Method: Technical grades of materials were dissolved in acetone, which were then mixed with nine volumes of water containing 110 ppm Triton X-100. The fungicide solutions were applied onto wheat seedlings using an automated booth sprayer to run-off. All sprayed plants were allowed to air dry prior to further handling. Wheat plants (variety Yuma) were grown from seed in a greenhouse in 50% mineral soil/50% soil-less Metro mix until the first leaf was fully emerged, with 7-10 seedlings per pot. These plants were inoculated with an aqueous spore suspension of Septoria tritici either prior to or after fungicide treatments. After inoculation the plants were kept in 100% relative humidity (one day in a dark dew chamber followed by two to three days in a lighted dew chamber at 20° C.) to permit spores to germinate and infect the leaf. The plants were then transferred to a greenhouse set at 20° C. for disease to develop. When disease symptoms were fully expressed on the 1st leaves of untreated plants, infection levels were assessed on a scale of 0 to 100 percent disease severity. Percent disease control was calculated using the ratio of disease severity on treated plants relative to untreated plants. Evaluation of Fungicidal Activity: Leaf Spot of Sugar Beets (Cercospora beticola; Bayer Code CERCBE) Sugar beet plants (variety HH88) were grown in soil-less Metro mix and trimmed regularly to maintain a uniform plant size prior to test. Plants were inoculated with a spore suspension 24 hr after fungicide treatments. Inoculated plants were kept in a dew chamber at 22° C. for 48 hr then incubated in a greenhouse set at 24° C. under a clear plastic hood with bottom ventilation until disease symptoms were fully expressed. Fungicide formulation, application and disease assessment on the sprayed leaves followed the procedures as described in the Example A.

[1] = test system: Puccinia triticina; synonym: Puccinia recondita f. sp. tritici; assay: Fungicidal activity: wheat brown rust (PUCCRT), wheat seedlings; conditions: 100 ppm, wheat
Method in brief: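 Wheat (Yuma) seedlings at first-leaf stage, inoculated with Puccinia triticina spores before or after treatment, held overnight in dark dew room at 22° C, 100% RH, then greenhouse at 24° C. Acetone solutions diluted with nine volumes water containing 110 ppm Triton X-100, sprayed to run-off. Percent disease control derived from severity (0–100%) relative to untreated plants.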

[2] = test system: Blumeria graminis f.sp. hordei; synonym: Erysiphe graminis f.sp. hordei; assay: Fungicidal activity: barley powdery mildew (ERYSGH); conditions: 24 h, 1 Day Protectant, read-out: Disease Control ERYSGH 1DP
Method: Technical grades of materials were dissolved in acetone, which were then mixed with nine volumes of water containing 110 ppm Triton X-100. The fungicide solutions were applied onto wheat seedlings using an automated booth sprayer to run-off. All sprayed plants were allowed to air dry prior to further handling. Wheat plants (variety Yuma) were grown from seed in a greenhouse in 50% mineral soil/50% soil-less Metro mix until the first leaf was fully emerged, with 7-10 seedlings per pot. These plants were inoculated with an aqueous spore suspension of Septoria tritici either prior to or after fungicide treatments. After inoculation the plants were kept in 100% relative humidity (one day in a dark dew chamber followed by two to three days in a lighted dew chamber at 20° C.) to permit spores to germinate and infect the leaf. The plants were then transferred to a greenhouse set at 20° C. for disease to develop. When disease symptoms were fully expressed on the 1st leaves of untreated plants, infection levels were assessed on a scale of 0 to 100 percent disease severity. Percent disease control was calculated using the ratio of disease severity on treated plants relative to untreated plants. Evaluation of Fungicidal Activity: Barley Powdery Mildew (Blumeria graminis f.sp. hordei; Synonym: Erysiphe graminis f.sp. hordei; Bayer Code […]) Barley seedlings (variety Harrington) were propagated in soil-less Metro mix, with each pot having 8 to 12 plants, and used in the test when first leaf was fully emerged. Test plants were inoculated by dusting with infected stock plants 24 hr after fungicide treatments. After inoculation the plants were kept in a greenhouse set at 20° C. for disease to develop. Fungicide formulation, application and disease assessment on the sprayed leaves followed the procedures as described in the Example A.

Leptosphaeria nodorum = assay: Fungicidal activity: wheat glume blotch (LEPTNO); conditions: Parastagonospora nodorum, 24 h, 1 Day Protectant, read-out: Disease Control LEPTNO 1 DP
Method: Technical grades of materials were dissolved in acetone, which were then mixed with nine volumes of water containing 110 ppm Triton X-100. The fungicide solutions were applied onto wheat seedlings using an automated booth sprayer to run-off. All sprayed plants were allowed to air dry prior to further handling. Wheat plants (variety Yuma) were grown from seed in a greenhouse in 50% mineral soil/50% soil-less Metro mix until the first leaf was fully emerged, with 7-10 seedlings per pot. These plants were inoculated with an aqueous spore suspension of Septoria tritici either prior to or after fungicide treatments. After inoculation the plants were kept in 100% relative humidity (one day in a dark dew chamber followed by two to three days in a lighted dew chamber at 20° C.) to permit spores to germinate and infect the leaf. The plants were then transferred to a greenhouse set at 20° C. for disease to develop. When disease symptoms were fully expressed on the 1st leaves of untreated plants, infection levels were assessed on a scale of 0 to 100 percent disease severity. Percent disease control was calculated using the ratio of disease severity on treated plants relative to untreated plants. Evaluation of Fungicidal Activity: Wheat Glume Blotch (Leptosphaeria nodorum; Bayer Code […]) Wheat plants (variety Yuma) were grown from seed in a greenhouse in 50% mineral soil/50% soil-less Metro mix until the first leaf was fully emerged, with 7-10 seedlings per pot. These plants were inoculated with an aqueous spore suspension of Leptosphaeria nodorum 24 hr after fungicide treatments. After inoculation the plants were kept in 100% relative humidity (one day in a dark dew chamber followed by two days in a lighted dew chamber at 20° C.) to permit spores to germinate and infect the leaf. The plants were then transferred to a greenhouse set at 20° C. for disease to develop. Fungicide formulation, application and disease assessment followed the procedures as described in the Example A.

[3] = test system: Mycosphaerella graminicola; anamorph: Septoria tritici; assay: Fungicidal activity: leaf blotch of wheat (SEPTTR), wheat seedlings; conditions: Zymoseptoria tritici, 100 ppm, wheat
Method in brief: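 Compounds in acetone were diluted with nine volumes of water containing 110 ppm Triton X-100 and sprayed to run-off on Yuma wheat seedlings at first-leaf stage. Septoria tritici spores were inoculated before or after treatment, followed by dew chambers at 100% RH and 20 °C, then greenhouse at 20 °C. Severity (0–100%) was scored once untreated plants were fully diseased; control was calculated relative to untreated plants.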

## COc1ccnc(C(=O)N[C@H]2COC[C@H](Oc3ccc(F)cc3)[C@@H](OCC(C)C)[C@H](C)OC2=O)c1OCOC(C)=O [Compound 228]
Cercospora beticola
  pest or weed control at 100 ppm: 0 to 80%
[1]; 24 h, 1 Day Protectant, read-out: Disease Control PUCCRT 1DP
  pest or weed control at 100 ppm: 80 to 100%
[1]; 72 h, 3 Day Curative, read-out: Disease Control PUCCRT 3DC
  pest or weed control at 100 ppm: 80 to 100%
[2]
  pest or weed control at 100 ppm: 0 to 80%
Leptosphaeria nodorum
  pest or weed control at 100 ppm: 80 to 100%
[3]; 24 h, 1 Day Protectant, read-out: Disease Control SEPTTR 1DP
  pest or weed control at 100 ppm: 80 to 100%
[3]; 72 h, 3 Day Curative, read-out: Disease Control SEPTTR 3DC
  pest or weed control at 100 ppm: 80 to 100%
